Source: patent US11548868B2, “Heterocyclic compounds, compositions comprising heterocyclic compound, and methods of use thereof” (JS INNOPHARM (SHANGHAI) LTD, priority 2017, dated 2023)

Tests used:
[1] = molecular target: T1, TDO2 in A172 cancer cells (Homo sapiens, UniProt P48775); test: TDO2 Cellular Assay (kynurenine production in A172 cancer cells); type: cell-based; details: L-Trp 1 mM, 24 hours incubation, kynurenine at 490 nm
T1 construct: endogenous in cells; host or cells: A172 cancer cells
In short: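 A172 cells seeded overnight, then given 1 mM L-Trp and test compound (0–25 μM, 0.25% DMSO) for 24 h at 37 °C. Supernatant treated with TCA at 50 °C to convert N-formylkynurenine, kynurenine detected with p-dimethylaminobenzaldehyde at 490 nm; IC50 by non-linear regression of inhibition versus DMSO control.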

[2] = molecular target: T2, IDO1 in Hela cancer cells (Homo sapiens, UniProt P14902); test: IDO1 Cellular Assay (kynurenine production in IFN-γ stimulated Hela cancer cells); type: cell-based; details: human IFN-γ 50 ng/mL, 48 hours incubation, kynurenine at 490 nm
T2 construct: endogenous in cells; host or cells: Hela cancer cells stimulated with human IFN-γ
In short: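 HeLa cells stimulated with 50 ng/mL IFN-γ (final) and treated 48 h with compound (0–25 μM final, 0.25% DMSO). Supernatant kynurenine measured after TCA hydrolysis and p-dimethylaminobenzaldehyde reaction at 490 nm; inhibition vs DMSO control, IC50 by non-linear regression.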

T1 sequence (P48775 whole entry): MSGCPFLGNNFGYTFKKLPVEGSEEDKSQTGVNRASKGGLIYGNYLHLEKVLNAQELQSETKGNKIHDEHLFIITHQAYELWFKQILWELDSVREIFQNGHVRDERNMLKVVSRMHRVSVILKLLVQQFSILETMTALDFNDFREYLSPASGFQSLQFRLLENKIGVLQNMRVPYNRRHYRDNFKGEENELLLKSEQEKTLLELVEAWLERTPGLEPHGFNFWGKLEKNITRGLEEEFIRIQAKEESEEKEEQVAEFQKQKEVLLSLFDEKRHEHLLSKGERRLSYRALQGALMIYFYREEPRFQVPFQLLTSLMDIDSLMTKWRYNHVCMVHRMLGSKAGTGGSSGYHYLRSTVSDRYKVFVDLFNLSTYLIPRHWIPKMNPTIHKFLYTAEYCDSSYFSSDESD
T2 sequence (P14902 whole entry): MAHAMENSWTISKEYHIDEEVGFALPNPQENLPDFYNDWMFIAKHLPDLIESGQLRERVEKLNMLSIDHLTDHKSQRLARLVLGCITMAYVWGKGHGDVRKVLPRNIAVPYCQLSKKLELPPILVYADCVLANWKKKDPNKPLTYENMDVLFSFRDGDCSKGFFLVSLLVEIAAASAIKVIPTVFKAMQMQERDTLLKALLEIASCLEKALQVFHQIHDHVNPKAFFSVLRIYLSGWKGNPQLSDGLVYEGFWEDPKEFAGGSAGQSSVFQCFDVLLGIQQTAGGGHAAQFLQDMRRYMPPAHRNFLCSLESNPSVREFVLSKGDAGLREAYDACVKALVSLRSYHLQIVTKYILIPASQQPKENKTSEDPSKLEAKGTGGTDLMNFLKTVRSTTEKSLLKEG

IC50 [1] [nM]	IC50 [2] [nM]	Compound
≤ 500	500 to 1000	O=C(N[C@H]1[C@@H]2C[C@@](O)(c3cc(Cl)cc4[nH]ncc34)C[C@@H]21)c1cccc(-c2ccccc2)c1 [Example 171, N-((1R,3r,5S,6r)-3-(6-chloro-1H-indazol-4-yl)-3-hydroxybicyclo[3.1.0]hexan-6-yl)-[1,1′-biphenyl]-3-carboxamide]
≤ 500	500 to 1000	O=S(=O)(CC(F)(F)F)N[C@H]1[C@@H]2C[C@@](O)(c3cc(Cl)cc4[nH]ncc34)C[C@@H]21 [Example 139, N-((1R,3r,5S,6r)-3-(6-chloro-1H-indazol-4-yl)-3-hydroxybicyclo[3.1.0]hexan-6-yl)-2,2,2-trifluoroethanesulfonamide]
≤ 500	1000 to 5000	O=C(Nc1ccc(F)cc1)N[C@H]1[C@@H]2C[C@@](O)(c3cc(Cl)cc4[nH]ncc34)C[C@@H]21 [Example 147, 1-((1R,3r,5S,6r)-3-(6-chloro-1H-indazol-4-yl)-3-hydroxybicyclo[3.1.0]hexan-6-yl)-3-(4-fluorophenyl)urea]
≤ 500	> 5000	O=C(c1ccccc1)N1C[C@@H]2C[C@@](O)(c3cc(Cl)cc4[nH]ncc34)C[C@@H]2C1 [Example 36, ((3aR,5r,6aS)-5-(6-chloro-1H-indazol-4-yl)-5-hydroxyhexahydrocyclopenta[c]pyrrol-2(1H)-yl)(phenyl)methanone]
≤ 500	> 5000	O=S(=O)(c1ccccc1)N1C[C@@H]2C[C@@](O)(c3cc(Cl)cc4[nH]ncc34)C[C@@H]2C1 [Example 35, (3aR,5r,6aS)-5-(6-chloro-1H-indazol-4-yl)-2-(phenylsulfonyl)octahydrocyclopenta[c]pyrrol-5-ol]
≤ 500	> 5000	CCNC(=O)N[C@H]1[C@@H]2C[C@@](O)(c3cc(Cl)cc4[nH]ncc34)C[C@@H]21 [Example 125, 1-((1R,3r,5S,6r)-3-(6-chloro-1H-indazol-4-yl)-3-hydroxybicyclo[3.1.0]hexan-6-yl)-3-ethylurea]
500 to 1000	1000 to 5000	CS(=O)(=O)N[C@H]1[C@@H]2C[C@@](O)(c3cc(Cl)cc4cn[nH]c34)C[C@@H]21 [Example 109, N-((1R,3r,5S,6r)-3-(5-chloro-1H-indazol-7-yl)-3-hydroxybicyclo[3.1.0]hexan-6-yl)methanesulfonamide]
> 5000	> 5000	CC1(C)[C@H]2CN(c3cc(C(F)(F)F)cc4cncn34)C[C@H]2CN1S(C)(=O)=O (racemic) [Example 50, Racemic-5-((3aR,6aS)-4,4-dimethyl-5-(methylsulfonyl)hexahydropyrrolo[3,4-c]pyrrol-2(1H)-yl)-7-(trifluoromethyl)imidazo[1,5-a]pyridine]
≤ 500	> 5000	CS(=O)(=O)N1C[C@H]2CC(C(O)c3cc(Cl)cc4[nH]ncc34)C[C@H]2C1 (stereo partly drawn) [Example 105, (6-chloro-1H-indazol-4-yl)((3aR,6aS)-2-(methylsulfonyl)octahydrocyclopenta[c]pyrrol-5-yl)methanol]
≤ 500	500 to 1000	O=C(N[C@H]1C[C@@H]2C[C@@](O)(c3cc(Cl)cc4[nH]ncc34)C[C@@H]2C1)c1cccc(Cl)c1 [Example 166, 3-chloro-N-((2r,3aR,5r,6aS)-5-(6-chloro-1H-indazol-4-yl)-5-hydroxyoctahydropentalen-2-yl)benzamide]
≤ 500	500 to 1000	O=C(N[C@H]1[C@@H]2C[C@@](O)(c3cc(Cl)cc4[nH]ncc34)C[C@@H]21)c1cc(F)cc(Cl)c1 [Example 152, 3-chloro-N-((1R,3r,5S,6r)-3-(6-chloro-1H-indazol-4-yl)-3-hydroxybicyclo[3.1.0]hexan-6-yl)-5-fluorobenzamide]
≤ 500	1000 to 5000	OCC1[C@H]2C[C@](O)(c3cc(Cl)cc4[nH]ncc34)C[C@@H]12 (stereo partly drawn) [Example 111, (1R,3r,5S)-3-(6-chloro-1H-indazol-4-yl)-6-(hydroxymethyl)bicyclo[3.1.0]hexan-3-ol]
